# Patent publication US20130203843A1, “MILD CATIONIC MITOCHONDRIAL UNCOUPLERS” (LIMITED LIABILITY COMPANY MITOTECH, priority 2010, published 2013)
# Key:
# obese people = obese people treated with DNP; cited from earlier work
# ischemized rats = assay: Cerebral ischemia in rats (middle cerebral artery blockage): MRT infarct volume and neurological deficit; assay type: in vivo; conditions: rat, i.p. 100 nmol/kg 24 hours before ischemia, 1 day after surgery
# Experimental: FIG. 7. Results of behavioral tests in rats before and at the first day after induction of ischemia. Bar “baseline” indicates final points in animals before surgery; “SO”—points in sham-operated animals; “ischemia+saline”—points in ischemized animals without treatment, with saline solution instead of the preparation; “ischemia+C12R19 0.1 μM” and “ischemia+C12R19 2 μM”—points in ischemized animals with treatment with preparation C12R19 at indicated concentrations. Statistically significant (p<0.01) reduction in severity of neurological deficit in rats treated with C12R19, denoted as
# Cerebral ischemia in rats was induced by insertion of nylon thread with silicone coating into the middle cerebral artery. Blockage of the blood flow was maintained for 60 min, after which the thread was removed from the vessel restoring the blood flow in the middle cerebral artery. During and after the surgery the body temperature of the animal was maintained at 37° C. Sham-operated animals were subjected to the same procedures, except for cutting vessels and insertion of thread. The volume of cerebral infarction was determined at the first day to study neuroprotective effects of preparations. […]
# 1 day after surgery, neurological deficit was determined in rats in the test “Stimulation of legs” and magnetic resonance imaging of the brain was performed. […]
# [1] = test system: whole yeast (Saccharomyces cerevisiae) cells; assay: Rate of oxygen consumption by whole yeast cells; assay type: cell-based; conditions: for stimulation of respiration versus suppression of growth: wide range of concentrations, yeast grown on nonfermentable substrate (glycerol)
# Experimental: (§1) FIG. 3. Comparison of properties of C12R19 and C12RB based on relative rate of oxygen consumption by whole yeast (Saccharomyces cerevisiae) cells (A) and yeast growth rate (B). V/V0 corresponds to ratio of oxygen consumption rates after and before addition of uncoupler. Growth rate was defined as the number of CFU (colony-forming units) in cell suspension culture incubated for 2 hours in the presence of indicated concentration of rhodamine derivative.
# (§2) FIG. 4. Comparison of stimulation of respiration and suppression of growth: (A) cationic (C12R19), and (B) anionic (FCCP) uncouplers in yeast (Saccharomyces cerevisiae) cells grown on nonfermentable substrate (glycerol). Stimulation of respiration was estimated based on the ratio of oxygen consumption rate in the presence of uncoupler (V) to initial rate (V0). Growth rate was assessed by increase in the number of cells for a given time interval. Growth rate in the absence of uncoupler was taken as 100%.
# Simulation of respiration of whole yeast cells reflects uncoupling properties of tested compound.
# [2] = Diffusion potential on planar bilayer lipid membrane ("black membrane" model); conditions: for formation of potential upon creation of gradient of the penetrating cation: 1 μM on cis side, same pH on both sides (pH=7); for formation of proton diffusion potential across lipid bilayer: 1 μM, pH_cis=7, pH_trans=8
# Experimental: FIG. 1. A. C12R19, but not C12RB, induces formation of proton diffusion potential across planar lipid bilayer membrane prepared from DPhPC. Concentrations of C12R19 and C12RB are 1 μM. pH_cis=7, pH_trans=8. B. Formation of potential upon creation of gradient of penetrating cations C12RB and C12R19 (1 μM on cis side) at the same pH on both sides (pH=7).
# To test penetrating ability of mitochondria-targeted compounds of structure (I), a method based on the ability of ions to penetrate through the bilayer phospholipid membrane moving along concentration gradient was used. The two chambers filled with an aqueous solution are separated by the bilayer membrane, the compound tested is added to one of the chambers. If a charged compound is capable of penetrating through the bilayer membrane, fast diffusion of the compound from the chamber with its high concentration to the chamber with its low concentration occurs, thus difference in the potentials is formed across the membrane. For ions carrying one charge and capable of passive penetrating through the membrane, the 10-fold concentration gradient allows to produce the potential of 60 mV at room temperature and ideal permeability (according to the Nernst equation).
# This method was used in various studies on the ability of ions to penetrate through a bilipid membrane and is described in detail in article: Starkov A A, Bloch D A, Chernyak B V, Dedukhova V I, Mansurova S A, Symonyan R A, Vygodina T V, Skulachev V P, 1997, Biochem. Biophys Acta, 1318, 159-172. With this method, C12-R19 (compound of structure (I)) was tested.
# It is known that addition of protonophore to such a system should lead to formation of the electric potential due to the flow of protons. […] This can be explained by shunting of potential due to induction of proton conductivity in the presence of C12R19.
# [3] = test system: yeast cells treated with 80 μM amiodarone; assay: Survival of yeast cells treated with amiodarone; assay type: cell-based, Saccharomyces cerevisiae
# Experimental: FIG. 5. Comparison of resistance of yeast cells to 80 μM amiodarone in the presence of different concentrations of anionic (FCCP) and cationic (C12R19) uncouplers.
# To test this, we compared the survival of yeast cells treated with 80 μM amiodarone in the presence of 1-10000 nmol/L FCCP and C12R19.
# [4] = Dissipation of pH gradient in membranes of pyranine-loaded liposomes; conditions: for dissipation of pH gradient (intraliposomal pH change), protonophore activity: in the presence of valinomycin (10 nM), C12R19 and C12RB at 0.15 μM, pH 8 buffer
# Experimental: FIG. 2. […] Intraliposomal pH was estimated based on the ratio of the intensities of fluorescence at 455 nm and 505 nm (excitation at 410 nm). 1 μM nigericin was added at 550 s for final pH adjustment. Control curve contained C12R19 but no valinomycin. Concentrations: C12R19 (150 nM), C12RB (150 nM), valinomycin (10 nM), lipid (75 μM). […] Control curve corresponds to addition of 10 nM valinomycin without protonophores. Buffer containing 10 mM MES, 10 mM MOPS, 10 mM TRICINE, and 0.1 M KCl (pH 8) was used.
# This method was used in various studies on the protonophore activity and is described in detail in article: Chen Y, Schindler M, Simon S M (1999) J Biol Chem 274:18364-18373. […] Said measurements were performed in the presence of valinomycin, the K^+ ionophore.
# [5] = test system: rats with induced rhabdomyolysis; assay: Rhabdomyolysis-induced acute renal failure in rats; assay type: in vivo; conditions: rat; i.p. 100 nmol/kg per injection, total 400 nmol/kg; 48 h after glycerol; versus rhabdomyolysis without treatment
# Experimental: FIG. 6. Creatinine level in blood of rats with induced rhabdomyolysis. Histogram bar “control” indicates level of creatinine in control group of animals; “rhabdo”—creatinine level in animals with rhabdomyolysis; “rhabdo+C12-R19”—creatinine level in animals with rhabdomyolysis and treatment with C12R19. All data are presented as mean±standard error of measurement.
# Induction of rhabdomyolysis was performed according to standard method by injecting rat leg muscles with 50% aqueous glycerol solution (ICN, USA). At the second day after ischemia, blood samples from animals were taken. Creatinine concentration in blood was determined using a CellTac blood analyzer (Nihon Kohben). Experiments on modeling of rhabdomyolysis were performed with at least 8 animals from each group. All data are presented as mean±standard error of measurement.
# For the treatment, the following scheme of C12R19 administration was used: intraperitoneal injection of the preparation 1 h after induction of rhabdomyolysis and then three times every 12 hours at a dose of 100 nmol/kg per injection. Thus, an animal received a total dose of 400 nmol/kg of C12R19.
# [6] = test system: yeast Saccharomyces cerevisiae; assay: Yeast growth rate in the presence of uncoupler; assay type: cell-based; conditions: 5 μM; incubated for 2 hours
# Experimental: as §1, §2
# Under similar conditions experiments determining yeast growth rate in the presence of a given concentration of uncoupler were performed.
# [7] = test system: yeast cells treated with 80 μM amiodarone; conditions: earlier publication (Pozniakovsky 2005); cited from earlier work
smiles,measurement,setting,value
"O=[N+]([O-])c1ccc(O)c([N+](=O)[O-])c1 [DNP, 2,4-dinitrophenol]",side effects in patients,obese people,many of them showed severe side effects
same,weight loss in patients,obese people,virtually all of the patients lost weight
"CCCCCCCCCCCCOC(=O)c1ccccc1-c1c2cc(C)c(=NCC)cc-2oc2cc(NCC)c(C)cc12 (stereo in doubt) [C12R19, Dodecyl-2-[(3E)-6-(ethylamino)-3-(ethylimino)-2,7-dimethyl-3H-xanthen-9-yl]benzoate bromide]","neurological deficit, test ""Stimulation of legs"" (14-point scale)","ischemized rats; control rats 2.0±0.2, p<0.01",5.3±1.1 points
same,volume of ischemic damage (T2-weighted MRT),ischemized rats; saline = 100±8.6%,80.4±11.5%
same,rate of respiration of whole yeast cells,[1]; concentration range that includes 5 μM,marked stimulation of the rate of respiration
same,rate of respiration of whole yeast cells,[1]; up to a concentration of 15 μM,did not reduce the rate of respiration
same,stimulation of respiration versus suppression of growth,[1],increases respiration rate without inhibiting yeast growth
same,formation of potential upon creation of gradient of the penetrating cation,[2],did not
same,formation of proton diffusion potential across lipid bilayer,[2],can generate potential
same,concentration range of cationic uncoupler relative to FCCP,[3],at least an order of magnitude higher
same,concentration range protecting cells against amiodarone,[3]; 1-10000 nmol/L tested,1 to 1000 nmol/L
same,intraliposomal pH changes,"[4]; in the absence of valinomycin, C12R19 150 nM",pH changes did not occur
same,"dissipation of pH gradient (intraliposomal pH change), protonophore activity",[4],significant changes of intraliposomal pH on the time-scale of minutes
same,creatinine level in blood,[5],decrease in creatinine level in blood
same,yeast growth rate (CFU),[6],significant reduction in the growth rate of the yeast Saccharomyces cerevisiae is not observed
CC(C)[C@@H]1NC(=O)[C@H](C)OC(=O)[C@@H](C(C)C)NC(=O)[C@@H](C(C)C)OC(=O)[C@H](C(C)C)NC(=O)[C@H](C)OC(=O)[C@@H](C(C)C)NC(=O)[C@@H](C(C)C)OC(=O)[C@H](C(C)C)NC(=O)[C@H](C)OC(=O)[C@@H](C(C)C)NC(=O)[C@@H](C(C)C)OC1=O [valinomycin],proton flux on liposomes by valinomycin itself,"[4]; control experiments, data not shown",does not induce proton flux on liposomes
N#CC(C#N)=NNc1ccc(OC(F)(F)F)cc1 [FCCP],uncoupling efficiency estimated from rate of oxygen consumption,[1]; FCCP compared with C12R19,much higher than that of C12R19
same,stimulation of respiration versus suppression of growth,[1],in contrast to FCCP
same,"dissipation of pH gradient (intraliposomal pH change), protonophore activity",[4],significantly greater activity
same,yeast cell death caused by amiodarone,[7],prevents yeast cell death caused by amiodarone
CCCCCCCCCCCCOC(=O)c1ccccc1-c1c2ccc(N(CC)CC)cc2[o+]c2cc(N(CC)CC)ccc12 [C12RB],rate of respiration of whole yeast cells,[1]; concentration of 4 μM,significant increase in the rate of respiration
same,rate of respiration of whole yeast cells,[1]; further increase in concentration above 4 μM,inhibition of respiration
same,formation of potential upon creation of gradient of the penetrating cation,[2],induced the potential upon addition at one side
same,formation of proton diffusion potential across lipid bilayer,[2],"but not C12RB, can generate potential"
same,"dissipation of pH gradient (intraliposomal pH change), protonophore activity",[4],practically no activity
